Measured values reported in ChEMBL document CHEMBL1129233, “1,3-diaryl-2-carboxyindoles as potent non-peptide endothelin antagonists” (Bioorg Med Chem Lett, 1996).
Where “and” joins values, the source holds several entries; their conditions need not be identical. Equal values may be shown once.

Organism: Oryctolagus cuniculus
Assay: Inhibition of arachidonic acid release (AAR-B) in rabbit renal artery vascular smooth muscle cells (ETA) upon stimulation with ET-1; call rule not given here
Assay type: functional
`COc1cc2c(-c3ccc4c(c3)OCO4)c(C(=O)O)n(Cc3ccc4c(c3)OCO4)c2cc1OCc1ccccc1` showed an IC50 of 230 nM.

What follows are compounds tested against T1, Endothelin receptor type B (Homo sapiens, UniProt P24530) (assay: Compound was evaluated for binding affinity against human Endothelin B receptor).
T1 sequence (P24530 whole entry): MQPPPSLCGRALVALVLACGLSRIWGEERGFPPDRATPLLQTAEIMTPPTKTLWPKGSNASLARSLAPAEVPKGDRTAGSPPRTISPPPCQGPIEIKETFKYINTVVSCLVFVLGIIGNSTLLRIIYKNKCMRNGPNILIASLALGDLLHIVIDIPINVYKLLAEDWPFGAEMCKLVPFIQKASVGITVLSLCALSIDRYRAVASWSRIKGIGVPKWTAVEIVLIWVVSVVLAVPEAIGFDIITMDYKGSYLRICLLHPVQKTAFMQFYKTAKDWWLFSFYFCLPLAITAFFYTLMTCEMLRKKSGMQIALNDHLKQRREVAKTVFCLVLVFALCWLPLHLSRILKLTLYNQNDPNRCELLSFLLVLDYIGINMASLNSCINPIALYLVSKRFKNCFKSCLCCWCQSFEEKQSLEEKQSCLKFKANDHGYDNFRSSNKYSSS
In the case of `CC(C)Oc1c(C(=O)O)sc2ccc(OCc3ccccc3)cc12`, the IC50 is reported as > 100000 nM.

The compounds below were run against T2, Endothelin-1 receptor (Homo sapiens, UniProt P25101) (assay: Inhibitory concentration to the endothelin A receptor expressed in LtK cells).
T2 sequence (P25101 whole entry): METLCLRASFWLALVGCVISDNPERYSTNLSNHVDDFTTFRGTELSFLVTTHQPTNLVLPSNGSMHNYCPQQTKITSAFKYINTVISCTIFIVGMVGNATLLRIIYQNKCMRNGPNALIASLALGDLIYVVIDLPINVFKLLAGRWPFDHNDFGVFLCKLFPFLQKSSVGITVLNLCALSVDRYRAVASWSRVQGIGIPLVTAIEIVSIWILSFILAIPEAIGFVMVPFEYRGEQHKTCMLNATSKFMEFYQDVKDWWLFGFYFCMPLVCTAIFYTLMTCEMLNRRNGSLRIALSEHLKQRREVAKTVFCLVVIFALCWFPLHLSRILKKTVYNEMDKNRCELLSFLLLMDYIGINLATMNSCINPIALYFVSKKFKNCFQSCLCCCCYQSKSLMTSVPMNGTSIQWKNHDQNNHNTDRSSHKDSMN
Assay type: cell-based
Work on `COc1cc2c(-c3ccc4c(c3)OCO4)c(C(=O)O)n(Cc3ccc4c(c3)OCO4)c2cc1OCc1ccccc1` yielded an IC50 of 30 nM.
`COc1ccc(-c2c(C(=O)O)n(Cc3ccc4c(c3)OCO4)c3cc(OC)c(OC)cc23)cc1OC` was tested, and the IC50 was 60 nM.
In the case of `COc1ccc(Cn2c(C(=O)O)c(-c3ccc4c(c3)OCO4)c3cc(OCc4ccccc4)ccc32)cc1`, the IC50 is reported as 2700 nM.
`O=C(O)c1c(-c2ccc3c(c2)OCO3)c2cc(OCc3ccccc3)ccc2n1-c1ccc2c(c1)OCO2` gave an IC50 of 1300 nM.
With `COc1ccc(-n2c(C(=O)O)c(-c3ccc4c(c3)OCO4)c3ccccc32)cc1` the IC50 was 2300 nM.
`O=C(O)c1c(-c2ccc3c(c2)OCO3)c2ccccc2n1-c1ccc2c(c1)OCO2` was tested, and the IC50 was 4100 nM.
For `CCCOc1ccc2c(c1)c(-c1ccc3c(c1)OCO3)c(C(=O)O)n2Cc1ccc2c(c1)OCO2`, the IC50 was 130 nM and 80 nM.
Compound `CCCOc1ccc2c(c1)c(-c1ccc3c(c1)OCO3)c(C(=O)O)n2-c1ccc2c(c1)OCO2` has an IC50 of 43 nM.
For `COc1cccc(-c2c(C(=O)O)n(-c3ccc4c(c3)OCO4)c3ccc(OC)cc23)c1`, the IC50 was 5500 nM.
`COc1ccc2c(c1)c(-c1ccc(OC)c(OC)c1)c(C(=O)O)n2-c1ccc2c(c1)OCO2` showed an IC50 of 1500 nM.
For `COc1ccc2c(c1)c(-c1ccc3c(c1)OCO3)c(C(=O)O)n2Cc1ccc2c(c1)OCO2`, the IC50 was 350 nM.
For `COc1ccc2c(c1)c(-c1ccc3c(c1)OCO3)c(C(=O)O)n2-c1ccc2c(c1)OCO2`, the IC50 was 260 nM.
With `O=C(O)c1c(-c2ccc3c(c2)OCO3)c2ccccc2n1Cc1ccccc1` the IC50 was 11000 nM.
`CCCOc1ccc2c(-c3ccc4c(c3)OCO4)c(C(=O)O)n(Cc3ccc4c(c3)OCO4)c2c1` was tested, and the IC50 was 47 nM.
With `COc1ccc2c(c1)c(-c1ccc3c(c1)OCO3)c(C(=O)O)n2-c1ccccc1` the IC50 was 12000 nM.
With `COc1ccc(-c2c(C(=O)O)n(-c3ccc4c(c3)OCO4)c3ccc(OCc4ccccc4)cc23)cc1` the IC50 was 2400 nM.
For `O=C(O)c1c(-c2ccc3c(c2)OCO3)c2cc(Cl)ccc2n1-c1ccccc1`, the IC50 was 10000 nM.
`O=C(O)c1c(-c2ccc3c(c2)OCO3)c2cc3c(cc2n1Cc1ccc2c(c1)OCO2)OCO3` gave an IC50 of 240 nM.
Compound `COc1cc2c(-c3ccc4c(c3)OCO4)c(C(=O)O)n(-c3ccc4c(c3)OCO4)c2cc1OC` has an IC50 of 80 nM.
Work on `COc1ccc(-c2c(C(=O)O)n(-c3ccc4c(c3)OCO4)c3ccc(OC)cc23)cc1` yielded an IC50 of 1100 nM.
Work on `COc1ccc2c(-c3ccc4c(c3)OCO4)c(C(=O)O)n(-c3ccccc3)c2c1` yielded an IC50 of 7400 nM.
`COc1cc2c(-c3ccc4c(c3)OCO4)c(C(=O)O)n(Cc3ccc4c(c3)OCO4)c2cc1OC` gave an IC50 of 60 nM.
For `O=C(O)c1c(-c2ccc3c(c2)OCO3)c2ccccc2n1Cc1ccc2c(c1)OCO2`, the IC50 was 1500 nM.
In the case of `O=C(O)c1c(-c2ccc3c(c2)OCO3)c2cc(OCc3ccccc3)ccc2n1Cc1ccc2c(c1)OCO2`, the IC50 is reported as 800 nM.
Compound `COc1ccc(-n2c(C(=O)O)c(-c3ccc4c(c3)OCO4)c3cc(OC)ccc32)cc1` has an IC50 of 3500 nM.

These compounds were tested against T1, Endothelin receptor type B (assay: Inhibitory concentration against Endothelin B receptor expressed in CHO-K1 cells).
Assay type: cell-based
Compound `COc1cc2c(-c3ccc4c(c3)OCO4)c(C(=O)O)n(Cc3ccc4c(c3)OCO4)c2cc1OCc1ccccc1` has an IC50 of 50 nM.
With `COc1ccc(-c2c(C(=O)O)n(Cc3ccc4c(c3)OCO4)c3cc(OC)c(OC)cc23)cc1OC` the IC50 was 850 nM.
In the case of `COc1ccc(Cn2c(C(=O)O)c(-c3ccc4c(c3)OCO4)c3cc(OCc4ccccc4)ccc32)cc1`, the IC50 is reported as 4400 nM.
Compound `O=C(O)c1c(-c2ccc3c(c2)OCO3)c2cc(OCc3ccccc3)ccc2n1-c1ccc2c(c1)OCO2` has an IC50 of 14000 nM.
In the case of `COc1ccc(-n2c(C(=O)O)c(-c3ccc4c(c3)OCO4)c3ccccc32)cc1`, the IC50 is reported as > 25000 nM.
`O=C(O)c1c(-c2ccc3c(c2)OCO3)c2ccccc2n1-c1ccc2c(c1)OCO2` gave an IC50 of 22000 nM.
With `CCCOc1ccc2c(c1)c(-c1ccc3c(c1)OCO3)c(C(=O)O)n2Cc1ccc2c(c1)OCO2` the IC50 was 1100 nM and 850 nM.
Compound `CCCOc1ccc2c(c1)c(-c1ccc3c(c1)OCO3)c(C(=O)O)n2-c1ccc2c(c1)OCO2` has an IC50 of 12000 nM.
With `COc1cccc(-c2c(C(=O)O)n(-c3ccc4c(c3)OCO4)c3ccc(OC)cc23)c1` the IC50 was > 25000 nM.
With `COc1ccc2c(c1)c(-c1ccc(OC)c(OC)c1)c(C(=O)O)n2-c1ccc2c(c1)OCO2` the IC50 was > 25000 nM.
For `COc1ccc2c(c1)c(-c1ccc3c(c1)OCO3)c(C(=O)O)n2Cc1ccc2c(c1)OCO2`, the IC50 was 2400 nM.
`COc1ccc2c(c1)c(-c1ccc3c(c1)OCO3)c(C(=O)O)n2-c1ccc2c(c1)OCO2` gave an IC50 of 15000 nM.
`O=C(O)c1c(-c2ccc3c(c2)OCO3)c2ccccc2n1Cc1ccccc1` gave an IC50 of 14500 nM.
With `CCCOc1ccc2c(-c3ccc4c(c3)OCO4)c(C(=O)O)n(Cc3ccc4c(c3)OCO4)c2c1` the IC50 was 5600 nM.
In the case of `COc1ccc2c(c1)c(-c1ccc3c(c1)OCO3)c(C(=O)O)n2-c1ccccc1`, the IC50 is reported as > 25000 nM.
Work on `COc1ccc(-c2c(C(=O)O)n(-c3ccc4c(c3)OCO4)c3ccc(OCc4ccccc4)cc23)cc1` yielded an IC50 of 21000 nM.
For `O=C(O)c1c(-c2ccc3c(c2)OCO3)c2cc(Cl)ccc2n1-c1ccccc1`, the IC50 was > 25000 nM.
With `O=C(O)c1c(-c2ccc3c(c2)OCO3)c2cc3c(cc2n1Cc1ccc2c(c1)OCO2)OCO3` the IC50 was 670 nM.
`COc1cc2c(-c3ccc4c(c3)OCO4)c(C(=O)O)n(-c3ccc4c(c3)OCO4)c2cc1OC` was tested, and the IC50 was 7000 nM.
In the case of `COc1ccc(-c2c(C(=O)O)n(-c3ccc4c(c3)OCO4)c3ccc(OC)cc23)cc1`, the IC50 is reported as > 25000 nM.
`COc1ccc2c(-c3ccc4c(c3)OCO4)c(C(=O)O)n(-c3ccccc3)c2c1` was tested, and the IC50 was > 25000 nM.
In the case of `O=C(O)c1c(-c2ccc3c(c2)OCO3)c2ccccc2n1Cc1ccc2c(c1)OCO2`, the IC50 is reported as 3300 nM.
Work on `O=C(O)c1c(-c2ccc3c(c2)OCO3)c2cc(OCc3ccccc3)ccc2n1Cc1ccc2c(c1)OCO2` yielded an IC50 of 2500 nM.
In the case of `COc1ccc(-n2c(C(=O)O)c(-c3ccc4c(c3)OCO4)c3cc(OC)ccc32)cc1`, the IC50 is reported as > 25000 nM.

Organism: Oryctolagus cuniculus
Assay: Ability to inhibit the release of arachidonic acid in rabbit renal artery vascular smooth muscle cells (ETA) upon stimulation with ET-1
Assay type: functional
`CCCOc1ccc2c(-c3ccc4c(c3)OCO4)c(C(=O)O)n(Cc3ccc4c(c3)OCO4)c2c1` gave an IC50 of 480 nM.

Each compound was assayed against Endothelin-1 receptor (Oryctolagus cuniculus) (assay: Compound was evaluated for binding affinity against rabbit Endothelin A receptor).
`CC(C)Oc1c(C(=O)O)sc2ccc(OCc3ccccc3)cc12` gave an IC50 of 6000 nM.

These compounds were tested against T3, Endothelin receptor type B (Rattus norvegicus, UniProt P21451) (assay: Compound was evaluated for binding affinity against rat Endothelin B receptor; inactive).
T3 sequence (P21451 whole entry): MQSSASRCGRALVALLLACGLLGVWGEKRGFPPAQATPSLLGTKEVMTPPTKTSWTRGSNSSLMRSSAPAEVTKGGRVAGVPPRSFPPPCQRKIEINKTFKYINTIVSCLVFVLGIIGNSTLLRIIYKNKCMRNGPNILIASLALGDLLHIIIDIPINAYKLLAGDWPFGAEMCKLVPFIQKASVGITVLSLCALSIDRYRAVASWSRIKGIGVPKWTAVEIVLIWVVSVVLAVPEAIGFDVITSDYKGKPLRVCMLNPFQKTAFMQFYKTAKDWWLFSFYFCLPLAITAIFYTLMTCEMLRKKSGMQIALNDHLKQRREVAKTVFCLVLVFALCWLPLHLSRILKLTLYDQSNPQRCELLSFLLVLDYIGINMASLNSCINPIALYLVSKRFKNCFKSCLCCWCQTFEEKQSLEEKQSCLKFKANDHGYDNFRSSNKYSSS
`CC(C)Oc1c(C(=O)O)sc2ccc(OCc3ccccc3)cc12` was tested, and the IC50 was “Not Active”.
